Patent US20210378244A1, “VIRUCIDAL COMPOSITIONS AND METHODS” (InExtreme Enterprises Pty Ltd, priority 2020, published 2021)

System: Gloeocapsa magma
Assay: Biological testing: visual rating of Gloeocapsa magma growth on inoculated plywood panels dipped in test solutions
Type: cell-based
Conditions: for effect on biocidal activity when combined with DDAC and/or BAC (QAC): QAC or QAC mixture and additive at concentrations as in the tables, data not shown for urea and urea dihydrochloride
Method: Test Solutions and Tests: To prepare the various QAC solutions, the following materials where used: Stepan BTC 1010 (50% aqueous solution of didecyl dimethyl ammonium chloride) and Stepan BTC 12 Special (50% aqueous solution of alkyl dimethyl benzyl ammonium chloride). Urea Monohydrochloride was prepared by reacting solid urea with hydrochloric acid 20BE (32% aqueous solution) at a ratio of one Mol active HCl to one Mol urea. Both Urea and HCl 20 BE are readily commercially available.
Biological testing: Gloeocapsa magma was chosen as a bacterial species that served as a model system for corona virus in terms of surface adhesion and membrane characteristics. The bacteria were cultured in a petri dish and inoculated on plywood panels (10×10 cm). […] The panels were dipped in the testing solutions for 10 seconds and left to dry. 24 hours post immersion each panel was examined for presence of green (living bacteria). This was done visually and rated from 0 (no growth)) to 5 (full growth coverage).

Row | SMILES | biocidal effect (0.9% of DDAC in combination with the urea or other nitrogenous base-hydrochloride in water) | effect on biocidal activity when combined with DDAC and/or BAC (QAC)
1 | CCCCCCCCCC[N+](C)(C)CCCCCCCCCC.[Cl-] [DDAC, didecyl dimethyl ammonium chloride] | same biocidal effect as 3% DDAC alone in water | 
2 | Cl.NC(N)=O [UMC, Urea Monohydrochloride] |  | synergistic effect
3 | Cl.Cl.NC(N)=O [urea dihydrochloride] |  | no impact in biocidal activity
4 | NC(N)=O [urea] |  | no impact in biocidal activity
